Assays:
Assay type in all cases: cell-based, hepatitis B virus
HBV [1] = assay: Extracellular HBV DNA secreted by HBV baculovirus infected HepG2 cells (Southern blot, densitometry)
Experimental: (T). […] Relaxed circular (RC) and double-stranded (DS) forms of HBV DNA are indicated. […] (T). […] Replicative intermediates were analyzed by Southern blotting. Double-stranded (DS) and single-stranded (SS) forms of HBV genomic DNA are indicated.
One limitation of using stable cell lines, such as HepG2 2.2.15 cells, for evaluating the efficacy of an antiviral on HBV replication is that the magnitude of virus replication is at a static level predetermined by the number of integrated HBV genome copies. […] Cultures were fed fresh 3TC supplemented medium daily. After 3 days of treatment (4 days p.i.). DNA was extracted from the medium of treated and untreated control cultures and analyzed by Southern Blotting. Autoradiograms shown indicate different elngths of time of exposure of the blot to film: 1 hour (A), 2 hours (B), 4 hours (C), and 8 hours (D). Relaxed circular (RC) and double-stranded (DS) forms of HBV DNA are indicated. The largest reduction of extracellular HBV DNA (>99% reduction after six days of treatment) occurred in cells infected with 25 pfu of baculovirus, the lowest multiplicity tested. […] However, it is also important to note that even a 96% reduction in HBV replication still allowed high levels of HBV virions to be secreted from 3TC-treated cells which were replicating very high levels of HBV (i.e. cells infected with HBV baculovirus at a high moi).
(§1) HepG2 cells were seeded at approximately 20% to 40% confluency and then were grown for 16 to 24 hours before infection. On the day of infection, duplicate plates of cells were trypsinized, and viable cell number was determined with a hemocytometer using Trypan blue exclusion. Average cell counts were calculated and used to determine the volume of high-titer viral stock necessary to infect cells at the indicated moi. Baculovirus was diluted into MEM-FBS to achieve the appropriate moi using volumes of 1.0 and 0.25 mL to infect 100-mm and 35-mm dishes, respectively. Baculovirus was adsorbed to HepG2 cells for one hour at 37° C. with gentle rocking every 15 minutes to ensure that the inoculum was evenly distributed. The inoculum was then aspirated and HepG2 cells were washed two times with phosphate-buffered saline and refed MEM-FBS.
Conditioned medium was collected from HepG2 cells and subjected to centrifugation at 6,000 g for 5 minutes to I5- remove cellular debris. HBV particles were precipitated with 10% PEG 8000 and were concentrated by centrifugation at 12,000×g. Viral pellets were resuspended in 1 mL of MEM-FBS and divided into two aliquots. One set of aliquots was treated with 750 μg/mL Pronase for one hour and then with 500 mg/mL DNase 1 for one hour. Both sets of aliquots were then digested with Proteinase K, and extracted with phenol and chloroform. DNA was precipitated with 0.1 volume of 3 mol/L sodium acetate and 1 volume of isopropanol. Ten micrograms of transfer RNA was added as a carrier during precipitation. Pellets were resuspended in 25 μL of TE and digested with 0.5 mg/mL RNase for 1 hour. DNA was then analyzed by electrophoresis and Southern blotting.
(§2) 3TC was a gift of BioChem Therapeutic Inc. (Laval, Quebec, Canada). […] Medium containing 3TC was prepared daily as needed using fresh aliquots of 3TC.

HBV [2] = assay: Non protein-associated RC and CCC HBV DNA in HBV baculovirus infected HepG2 cells (Southern blot); conditions: for non protein-associated RC HBV DNA, % Untreated Control: 50 pfu/cell
Experimental: On the indicated days (3, 6, and 9 days of drug treatment) HBV replication in HepG2 cultures was assessed by examining extracellular HBV DNA and intracellular replicative intermediates.
(T). […] Relaxed circular (RC) and covalently closed circular (CCC) HBV DNA is indicated. […] A conclusion from these studies is that the HBV baculovirus-HepG2 system can be used to complement other in vitro model systems currently used for testing antiviral compounds.
as §1
Nonprotein-bound circular HBV genomes were extracted from HepG2 cells after infection by a high salt extraction of low molecular weight DNA followed by a phenol and chloroform extraction. Nucleic acids were resuspended in 50 μL of water and normalized by OD260. All samples were treated with 100 μg/mL RNase and 30 U of Plasmid-Safe ATP-Dependent DNase (Epicenter Technologies, Madison, Wis.). After a two-hour incubation at 37° C., Plasmid-Safe DNase was heat inactivated at 65° C. according to the manufacturer's instructions. Each sample was separated into two aliquots and one aliquot was digested with Xhol for one hour at 37° C. Samples were analyzed by electrophoresis and Southern blotting.
as §2

HBV [3] = assay: Extracellular HBV DNA secreted by HBV baculovirus infected HepG2 cells (Southern blot, densitometry); conditions: 0.2 μM 3TC, 10 day treatment

SMILES: Nc1ccn([C@@H]2CS[C@H](CO)O2)c(=O)n1 [3TC, (−)-2′-dideoxy-3′-thiacytidine]
- extracellular HBV DNA, % Untreated Control (HBV [1]; 0.02 μM 3TC, P (from 16 h prior to infection), day 4 p.i. (3 days treatment), 50 pfu/cell): 69.8 % Untreated Control
- extracellular HBV DNA, % Untreated Control (HBV [1]; 0.02 μM 3TC, P (from 16 h prior to infection), day 7 p.i. (6 days treatment), 50 pfu/cell): 60.6 % Untreated Control
- extracellular HBV DNA, % Untreated Control (HBV [1]; 0.02 μM 3TC, P (from 16 h prior to infection), day 10 p.i. (9 days treatment), 50 pfu/cell): 38.1 % Untreated Control
- extracellular HBV DNA, % Untreated Control (HBV [1]; 0.02 μM 3TC, T (from 24 h p.i.), day 4 p.i. (3 days treatment), 50 pfu/cell): 68.1 % Untreated Control
- extracellular HBV DNA, % Untreated Control (HBV [1]; 0.02 μM 3TC, T (from 24 h p.i.), day 7 p.i. (6 days treatment), 50 pfu/cell): 39.6 % Untreated Control
- extracellular HBV DNA, % Untreated Control (HBV [1]; 0.02 μM 3TC, T (from 24 h p.i.), day 10 p.i. (9 days treatment), 50 pfu/cell): 33.0 % Untreated Control
- reduction of extracellular HBV DNA (HBV [1]; 0.02 μM 3TC, nine day treatment, moi 50 pfu/cell): 67%
- reduction of HBV DNA in the medium (HBV [1]; 0.02 μM 3TC, three days of treatment, moi 50 pfu/cell): about 30%
- extracellular HBV DNA, % Untreated Control (HBV [1]; 0.2 μM 3TC from 24 h p.i., moi 25, day 4 p.i. (3 days treatment)): 4.8 % Untreated Control
- extracellular HBV DNA, % Untreated Control (HBV [1]; 0.2 μM 3TC from 24 h p.i., moi 25, day 7 p.i. (6 days treatment)): 0.5 % Untreated Control
- extracellular HBV DNA, % Untreated Control (HBV [1]; 0.2 μM 3TC from 24 h p.i., moi 50, day 4 p.i. (3 days treatment)): 13.9 % Untreated Control
- extracellular HBV DNA, % Untreated Control (HBV [1]; 0.2 μM 3TC from 24 h p.i., moi 50, day 7 p.i. (6 days treatment)): 3.5 % Untreated Control
- extracellular HBV DNA, % Untreated Control (HBV [1]; 0.2 μM 3TC from 24 h p.i., moi 100, day 4 p.i. (3 days treatment)): 27.2 % Untreated Control
- extracellular HBV DNA, % Untreated Control (HBV [1]; 0.2 μM 3TC from 24 h p.i., moi 100, day 7 p.i. (6 days treatment)): 3.4 % Untreated Control
- extracellular HBV DNA, % Untreated Control (HBV [1]; 0.2 μM 3TC from 24 h p.i., moi 200, day 4 p.i. (3 days treatment)): 20.7 % Untreated Control
- extracellular HBV DNA, % Untreated Control (HBV [1]; 0.2 μM 3TC from 24 h p.i., moi 200, day 7 p.i. (6 days treatment)): 2.2 % Untreated Control
- extracellular HBV DNA, % Untreated Control (HBV [1]; 0.2 μM 3TC from 24 h p.i., moi 400, day 4 p.i. (3 days treatment)): 18.7 % Untreated Control
- extracellular HBV DNA, % Untreated Control (HBV [1]; 0.2 μM 3TC from 24 h p.i., moi 400, day 7 p.i. (6 days treatment)): 4.7 % Untreated Control
- extracellular HBV DNA, % Untreated Control (HBV [1]; 0.2 μM 3TC, P (from 16 h prior to infection), day 4 p.i. (3 days treatment), 50 pfu/cell): 10.1 % Untreated Control
- extracellular HBV DNA, % Untreated Control (HBV [1]; 0.2 μM 3TC, P (from 16 h prior to infection), day 7 p.i. (6 days treatment), 50 pfu/cell): 2.4 % Untreated Control
- extracellular HBV DNA, % Untreated Control (HBV [1]; 0.2 μM 3TC, P (from 16 h prior to infection), day 10 p.i. (9 days treatment), 50 pfu/cell): 0.8 % Untreated Control
- extracellular HBV DNA, % Untreated Control (HBV [1]; 0.2 μM 3TC, T (from 24 h p.i.), day 4 p.i. (3 days treatment), 50 pfu/cell): 13.4 % Untreated Control
- extracellular HBV DNA, % Untreated Control (HBV [1]; 0.2 μM 3TC, T (from 24 h p.i.), day 7 p.i. (6 days treatment), 50 pfu/cell): 5.6 % Untreated Control
- extracellular HBV DNA, % Untreated Control (HBV [1]; 0.2 μM 3TC, T (from 24 h p.i.), day 10 p.i. (9 days treatment), 50 pfu/cell): 1.9 % Untreated Control
- reduction of extracellular HBV DNA (HBV [1]; 0.2 μM 3TC, six days of treatment, 25 pfu of baculovirus): > 99%
- average reduction of extracellular HBV DNA (HBV [1]; 0.2 μM 3TC, six days of treatment, multiplicities 50 to 400 pfu/cell): greater than 96%
- extracellular HBV DNA, % Untreated Control (HBV [1]; 2.0 μM 3TC, P (from 16 h prior to infection), day 4 p.i. (3 days treatment), 50 pfu/cell): 1.3 % Untreated Control
- extracellular HBV DNA, % Untreated Control (HBV [1]; 2.0 μM 3TC, P (from 16 h prior to infection), day 7 p.i. (6 days treatment), 50 pfu/cell): 1.2 % Untreated Control
- extracellular HBV DNA, % Untreated Control (HBV [1]; 2.0 μM 3TC, P (from 16 h prior to infection), day 10 p.i. (9 days treatment), 50 pfu/cell): 0.8 % Untreated Control
- extracellular HBV DNA, % Untreated Control (HBV [1]; 2.0 μM 3TC, T (from 24 h p.i.), day 4 p.i. (3 days treatment), 50 pfu/cell): 2.4 % Untreated Control
- extracellular HBV DNA, % Untreated Control (HBV [1]; 2.0 μM 3TC, T (from 24 h p.i.), day 7 p.i. (6 days treatment), 50 pfu/cell): 2.4 % Untreated Control
- extracellular HBV DNA, % Untreated Control (HBV [1]; 2.0 μM 3TC, T (from 24 h p.i.), day 10 p.i. (9 days treatment), 50 pfu/cell): 0.8 % Untreated Control
- reduction of extracellular HBV DNA (HBV [1]; 2.0 μM 3TC, nine days of treatment, moi 50 pfu/cell): more than 99%
- non protein-associated RC HBV DNA, % Untreated Control (HBV [2]; 0.02 μM 3TC, P (from 16 h prior to infection), day 4 p.i. (3 days treatment)): 60.9 % Untreated Control
- non protein-associated RC HBV DNA, % Untreated Control (HBV [2]; 0.02 μM 3TC, P (from 16 h prior to infection), day 7 p.i. (6 days treatment)): 45.2 % Untreated Control
- non protein-associated RC HBV DNA, % Untreated Control (HBV [2]; 0.02 μM 3TC, T (from 24 h p.i.), day 4 p.i. (3 days treatment)): 48.8 % Untreated Control
- non protein-associated RC HBV DNA, % Untreated Control (HBV [2]; 0.02 μM 3TC, T (from 24 h p.i.), day 7 p.i. (6 days treatment)): 40.2 % Untreated Control
- non protein-associated RC HBV DNA, % Untreated Control (HBV [2]; 0.2 μM 3TC, P (from 16 h prior to infection), day 4 p.i. (3 days treatment)): 8.6 % Untreated Control
- non protein-associated RC HBV DNA, % Untreated Control (HBV [2]; 0.2 μM 3TC, P (from 16 h prior to infection), day 7 p.i. (6 days treatment)): 10.5 % Untreated Control
- non protein-associated RC HBV DNA, % Untreated Control (HBV [2]; 0.2 μM 3TC, T (from 24 h p.i.), day 4 p.i. (3 days treatment)): 17.3 % Untreated Control
- non protein-associated RC HBV DNA, % Untreated Control (HBV [2]; 0.2 μM 3TC, T (from 24 h p.i.), day 7 p.i. (6 days treatment)): 10.9 % Untreated Control
- non protein-associated RC HBV DNA, % Untreated Control (HBV [2]; 2.0 μM 3TC, P (from 16 h prior to infection), day 4 p.i. (3 days treatment)): 3.2 % Untreated Control
- non protein-associated RC HBV DNA, % Untreated Control (HBV [2]; 2.0 μM 3TC, P (from 16 h prior to infection), day 7 p.i. (6 days treatment)): 5.6 % Untreated Control
- non protein-associated RC HBV DNA, % Untreated Control (HBV [2]; 2.0 μM 3TC, T (from 24 h p.i.), day 4 p.i. (3 days treatment)): 6.8 % Untreated Control
- non protein-associated RC HBV DNA, % Untreated Control (HBV [2]; 2.0 μM 3TC, T (from 24 h p.i.), day 7 p.i. (6 days treatment)): 6.7 % Untreated Control
- inhibition at 2 µM (HBV [2]; Hepatitis B virus, HepG2, read-out: inhibition of non protein-associated RC HBV DNA production): > 90%
- reduction in extracellular DNA (HBV [3]): ~98%

From patent US6610471B1, “Methods and compositions to investigate infection by hepatitis B virus and agents to prevent and treat the infection” (priority 1998, dated 2003)
